Data on 35 compounds can be found in ChEMBL document CHEMBL1125003, “Synthesis, biological evaluation, and quantitative structure-activity relationship analysis of [beta-(Aroylamino)ethyl]piperazines and -piperidines and [2-[(Arylamino)carbonyl]ethyl]piperazines, -pyrazinopyridoindoles, and -pyrazinoisoquinolines. A new class of potent H1 antagonists” (J Med Chem, 1990).

Several values for one entry are separate records, joined by “and”; a condition that tells them apart may be missing. Equal entries are not always repeated.

The target in the assay is Histamine H1 receptor (Cavia porcellus, UniProt P31389). In words: Antihistaminic activity against Histamine H1 receptor was measured on isolated terminal part of guinea pig ileum. It is filed as tissue-based.
Sequence of Histamine H1 receptor (P31389 whole entry): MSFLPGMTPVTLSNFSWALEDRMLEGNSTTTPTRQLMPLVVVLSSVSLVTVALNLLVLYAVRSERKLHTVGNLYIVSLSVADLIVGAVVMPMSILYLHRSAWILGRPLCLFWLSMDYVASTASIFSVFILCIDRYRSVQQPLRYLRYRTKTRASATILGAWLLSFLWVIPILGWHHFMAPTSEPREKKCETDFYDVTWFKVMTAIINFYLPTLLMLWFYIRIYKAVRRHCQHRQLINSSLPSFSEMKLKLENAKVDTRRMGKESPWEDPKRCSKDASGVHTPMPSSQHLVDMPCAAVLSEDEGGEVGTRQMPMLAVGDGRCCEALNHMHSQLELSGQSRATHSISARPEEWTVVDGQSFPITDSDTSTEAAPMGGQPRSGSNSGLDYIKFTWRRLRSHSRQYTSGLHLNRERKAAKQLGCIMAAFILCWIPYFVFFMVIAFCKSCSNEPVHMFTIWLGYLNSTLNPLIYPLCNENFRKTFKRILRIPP

With `O=C(CCN1CCN2Cc3[nH]c4ccccc4c3CC2C1)Nc1ccccc1` (stereo unspecified), the IC50 (read-out: I50 (converted)) was 1600 nM.

As for `O=C(CCN1CCN(Cc2ccccc2)CC1)Nc1ccccc1[N+](=O)[O-]`, where the note is “read-out: I50 (converted)”, the IC50 was 1700 nM and 2040 nM. On the same count and under the same terms, the figure for `O=C(CCN1CCN2Cc3[nH]c4ccccc4c3CC2C1)Nc1ccccc1[N+](=O)[O-]` (stereo unspecified) is 1740 nM; for `O=C(CCN1CCN2Cc3ccccc3CC2C1)Nc1ccccc1` (stereo unspecified) it is 1340 nM.

With `O=C(CCN1CCC(Cc2ccccc2)CC1)Nc1ccccc1F`, the IC50 (read-out: I50 (converted)) is 832 nM and 822 nM. With `CCc1ccccc1NC(=O)CCN1CCN(Cc2ccccc2)CC1`, under “read-out: I50 (converted)”, the IC50 was 778 nM and 939 nM. On the same count and under the same terms, the figure for `c1ccc2c3c([nH]c2c1)CN1CCNCC1C3` (stereo unspecified) is 535 nM; for `CN1CCN2Cc3[nH]c4ccccc4c3CC2C1` (stereo unspecified) it is 283 nM.

For the compound `O=C(NCCN1CCN(Cc2ccccc2)CC1)c1ccccc1Br`, the IC50 (read-out: I50 (converted)) is 421 nM and 497 nM. Turning to `O=C(CCN1CCN2Cc3ccccc3CC2C1)Nc1ccccc1[N+](=O)[O-]` (stereo unspecified), the IC50 (read-out: I50 (converted)) is 1320 nM and 1310 nM. Still for that read-out and setting: the same measure for `CCc1ccccc1NC(=O)CCN1CCC(Cc2ccccc2)CC1`: 477 nM and 485 nM; for `O=C(CCN1CCC(Cc2ccccc2)CC1)Nc1ccccc1`: 1510 nM and 1520 nM. In the case of `CCc1ccccc1NC(=O)CCN1CCN2Cc3[nH]c4ccccc4c3CC2C1` (stereo unspecified), the IC50 (read-out: I50 (converted)) was 634 nM. As for `O=C(NCCN1CCN(Cc2ccccc2)CC1)c1ccccc1[N+](=O)[O-]`, under “read-out: I50 (converted)”, the IC50 is 1320 nM and 1570 nM. On the same count and under the same terms, the figure for `O=C(CCN1CCC(Cc2ccccc2)CC1)Nc1ccccc1Cl` is 561 nM and 560 nM; for `O=C(CCN1CCN(Cc2ccccc2)CC1)Nc1ccccc1Cl` it is 836 nM and 1010 nM; for `O=C(NCCN1CCN(Cc2ccccc2)CC1)c1ccccc1` it is 6940 nM and 8500 nM. Still for that read-out and setting: the same measure for `O=C(NCCN1CCC(Cc2ccccc2)CC1)c1ccccc1Br`: 661 nM and 673 nM; for `O=C(NCCN1CCN(Cc2ccccc2)CC1)c1ccccc1Cl`: 696 nM and 838 nM; for `O=C(CCN1CCN2Cc3[nH]c4ccccc4c3CC2C1)Nc1ccccc1F` (stereo unspecified): 1280 nM and 1270 nM.

Turning to `O=C(CCN1CCN2Cc3ccccc3CC2C1)Nc1ccccc1Cl` (stereo unspecified), the IC50 (read-out: I50 (converted)) is 677 nM and 676 nM. Consider `O=C(NCCN1CCC(Cc2ccccc2)CC1)c1ccccc1`, for which, under “read-out: I50 (converted)”, the IC50 was 1550 nM and 1740 nM. As for `COc1ccccc1C(=O)NCCN1CCN2Cc3[nH]c4ccccc4c3CC2C1` (stereo unspecified), the IC50 (read-out: I50 (converted)) is 364 nM. As for `O=[N+]([O-])N1CCN2Cc3[nH]c4ccccc4c3CC2C1` (stereo unspecified), the IC50 (read-out: I50 (converted)) was 375 nM. Consider `O=C(CCN1CCN(Cc2ccccc2)CC1)Nc1ccccc1`, for which, where the note is “read-out: I50 (converted)”, the IC50 is 2170 nM and 2200 nM. In the case of `Cc1ccccc1C(=O)NCCN1CCN(Cc2ccccc2)CC1`, the IC50 (read-out: I50 (converted)) was 7120 nM and 7110 nM.

`COc1ccccc1NC(=O)CCN1CCC(Cc2ccccc2)CC1`: the IC50 was 963 nM (read-out: I50) and 965 nM (read-out: I50 (converted)). For the compound `O=C(NCCN1CCC(Cc2ccccc2)CC1)c1ccccc1Cl`, the IC50 (read-out: I50 (converted)) is 799 nM and 785 nM. Same read-out and setting: the same measure for `O=C(CCN1CCN(Cc2ccccc2)CC1)Nc1ccccc1F`: 1320 nM and 908 nM; for `O=C(NCCN1CCN(Cc2ccccc2)CC1)c1ccccc1I`: 345 nM and 401 nM; for `Cc1ccccc1C(=O)NCCN1CCC(Cc2ccccc2)CC1`: 1070 nM and 1190 nM. Still for that read-out and setting: the same measure for `ClN1CCN2Cc3[nH]c4ccccc4c3CC2C1` (stereo unspecified): 206 nM; for `O=C(CCN1CCN2Cc3[nH]c4ccccc4c3CC2C1)Nc1ccccc1Cl` (stereo unspecified): 979 nM and 978 nM. Consider `NN1CCN2Cc3[nH]c4ccccc4c3CC2C1` (stereo unspecified), for which the IC50 (read-out: I50 (converted)) is 925 nM. For `CCc1ccccc1NC(=O)CCN1CCN2Cc3ccccc3CC2C1` (stereo unspecified), the IC50 (read-out: I50 (converted)) is 525 nM and 523 nM.
